# Data from patent publication US9073876B2, “Flap modulators” (JANSSEN PHARMACEUTICA NV, priority 2013, dated 2015).
# pIC50, pKi: −log10 of the molar value. Where a name gives a salt, the structure may show the parent alone.
# Target: human FLAP (Homo sapiens (Human), UniProt P20292)
# Experiment: FLAP binding assay (HTRF)
# Conditions: human FLAP-containing membranes, HTRF format; average of two assay plates, duplicates; read-out: FLAP Binding wild type HTRF Ki
# Procedure: (§1) The ability of the compounds of the present invention to treat a FLAP-mediated disease and/or disorder, or associated symptoms or complications thereof, was determined using the following procedures. Binding assay data represent the average value obtained from two different assay plates, with samples run in duplicate on each plate. Human whole blood assay data represent a single replicate on an assay plate using whole blood from at least one healthy donor.
# Data are expressed as a HTRF ratio.
# Sequence of human FLAP (P20292 whole entry): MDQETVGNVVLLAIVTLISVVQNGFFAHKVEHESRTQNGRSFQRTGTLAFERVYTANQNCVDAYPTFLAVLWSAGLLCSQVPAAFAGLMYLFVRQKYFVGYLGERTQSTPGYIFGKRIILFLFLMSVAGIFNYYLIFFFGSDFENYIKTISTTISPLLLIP
row,pKi,Molecule
1,5.71,"COc1c(C2CCC2)ccc(-c2cnc3[nH]cnc3n2)c1F [Example 182, 5-(4-cyclobutyl-2-fluoro-3-methoxyphenyl)-1H-imidazo[4,5-b]pyrazine]"
2,5.60,"COc1c(Br)ccc(-c2cnc(N)cn2)c1F [Example 210, 5-(4-bromo-2-fluoro-3-methoxyphenyl)-pyrazin-2-amine]"
3,6.28,"COc1c(C2CCCC2)ccc(-c2cnc(N)cn2)c1F [Example 211, 5-(4-Cyclopentyl-2-fluoro-3-methoxyphenyl)pyrazin-2-amine]"
4,6.06,"Nc1cnc(-c2ccc(Cl)c(OCc3ccccc3)c2F)cn1 [Example 216, 5-[3-(Benzyloxy)-4-chloro-2-fluorophenyl]pyrazin-2-amine]"
5,5.90,"Nc1cnc(-c2ccc(C3CCC3)c(OCc3ccccc3)c2)cn1 [Example 217, 5-[3-(Benzyloxy)-4-cyclobutylphenyl]pyrazin-2-amine]"
6,< 5.00,"COc1c(C2CCC2)ccc(-c2ccc(N)nn2)c1F [Example 219, 6-(4-cyclobutyl-2-fluoro-3-methoxyphenyl)pyridazin-3-amine]"
7,6.23,"Oc1c(C2CCC2)ccc(-c2cc3cc[nH]c3nn2)c1F [Example 221, 6-cyclobutyl-2-fluoro-3-(7H-pyrrolo[2,3-c]pyridazin-3-yl)phenol]"
8,< 5.00,"Nc1ccc(-c2ccc(C3CCC3)c(O)c2F)nn1 [Example 223, 3-(6-aminopyridazin-3-yl)-6-cyclobutyl-2-fluorophenol]"
9,5.67,"Nc1ccc(-c2ccc(C3CCC3)c(Oc3ncccn3)c2F)nn1 [Example 231, 6-(4-cyclobutyl-2-fluoro-3-(pyrimidin-2-yloxy)phenyl)pyridazin-3-amine]"
10,5.80,"COc1cc(Oc2c(C3CCC3)ccc(-c3ccc(N)nn3)c2F)ncn1 [Example 232, 6-(4-cyclobutyl-2-fluoro-3-((6-methoxypyrimidin-4-yl)oxy)phenyl)pyridazin-3-amine]"
11,5.77,"Nc1ccc(-c2ccc(C3CCC3)c(Oc3cc(O)ncn3)c2F)nn1 [Example 233, 6-(3-(6-aminopyridazin-3-yl)-6-cyclobutyl-2-fluorophenoxy)pyrimidin-4-ol]"
12,< 5.00,"Nc1cnc(-c2ccc(C3CCC3)c(OCC3CCOCC3)c2F)cn1 [Example 264, 5-[4-Cyclobutyl-2-fluoro-3-(tetrahydro-2H-pyran-4-ylmethoxy)phenyl]pyrazin-2-amine]"
13,< 5.00,"CS(=O)(=O)c1cc(C#N)ccc1Oc1c(C2CCC2)ccc(-c2cnc(N)cn2)c1F [Example 265, 4-[3-(5-Aminopyrazin-2-yl)-6-cyclobutyl-2-fluorophenoxy]-3-(methylsulfonyl)benzonitrile]"
14,< 5.00,"Nc1cnc(-c2ccc(C3CCC3)c(Oc3ccc(C(F)(F)F)cc3C(F)(F)F)c2F)cn1 [Example 266, 5-{3-[2,4-Bis(trifluoromethyl)phenoxy]-4-cyclobutyl-2-fluorophenyl}pyrazin-2-amine]"
15,< 5.00,"CN(C)CCCOc1c(C2CCC2)ccc(-c2cnc(N)cn2)c1F [Example 267, 5-{4-Cyclobutyl-3-[3-(dimethylamino)propoxy]-2-fluorophenyl}pyrazin-2-amine]"
16,< 5.00,"CN(C)CCOc1c(C2CCC2)ccc(-c2cnc(N)cn2)c1F [Example 268, 5-{4-Cyclobutyl-3-[2-(dimethylamino)ethoxy]-2-fluorophenyl}pyrazin-2-amine]"

row,pKi,Molecule
1,6.10,"Nc1ccnc(Oc2c(C3CCC3)ccc(-c3cc4cc[nH]c4nn3)c2F)n1 [Example 270, 2-[6-Cyclobutyl-2-fluoro-3-(7H-pyrrolo[2,3-c]pyridazin-3-yl)phenoxy]pyrimidin-4-amine]"
2,< 5.00,"N#Cc1nc(N)ncc1Oc1c(C2CCC2)ccc(-c2cnc(N)cn2)c1F [Example 273, 2-Amino-5-[3-(5-aminopyrazin-2-yl)-6-cyclobutyl-2-fluorophenoxy]pyrimidine-4-carbonitrile]"
3,7.01,"Nc1cnc(-c2ccc(C3CCC3)c(OCc3nc4ccccc4s3)c2F)cn1 [Example 283, 5-[3-(1,3-Benzothiazol-2-ylmethoxy)-4-cyclobutyl-2-fluorophenyl]pyrazin-2-amine trifluoroacetic acid salt]"
4,< 5.00,"Cn1cnc(COc2c(C3CCC3)ccc(-c3cnc(N)cn3)c2F)c1 [Example 284, 5-{4-Cyclobutyl-2-fluoro-3-[(1-methyl-1H-imidazol-4-yl)methoxy]phenyl}pyrazin-2-amine trifluoroacetic acid salt]"
5,< 5.00,"Cn1cncc1COc1c(C2CCC2)ccc(-c2cnc(N)cn2)c1F [Example 285, 5-{4-Cyclobutyl-2-fluoro-3-[(1-methyl-1H-imidazol-5-yl)methoxy]phenyl}pyrazin-2-amine trifluoroacetic acid salt]"
6,6.44,"Nc1cnc(-c2ccc(C3CCC3)c(OCc3cccnn3)c2F)cn1 [Example 288, 5-[4-Cyclobutyl-2-fluoro-3-(pyridazin-3-ylmethoxy)phenyl]pyrazin-2-amine trifluoroacetic acid salt]"
7,6.16,"NCCOc1c(C2CCC2)ccc(-c2cnc(N)cn2)c1F [Example 294, 5-[3-(2-aminoethoxy)-4-cyclobutyl-2-fluorophenyl]pyrazin-2-amine]"
8,< 5.00,"Nc1cnc(-c2ccc(C3CCC3)c(OCC3CCNCC3)c2F)cn1 [Example 298, 5-[4-Cyclobutyl-2-fluoro-3-(piperidin-4-ylmethoxy)phenyl]pyrazin-2-amine hydrogen chloride salt]"
9,< 5.00,"Nc1cnc(-c2ccc(C3CCC3)c(OCC3CNC3)c2F)cn1 [Example 301, 5-[3-(Azetidin-3-ylmethoxy)-4-cyclobutyl-2-fluorophenyl]pyrazin-2-amine]"
10,< 5.00,"Cc1ccc(-c2cnc(N)cn2)c(F)c1Oc1ncccn1 [Example 314, 5-[2-Fluoro-4-methyl-3-(pyrimidin-2-yloxy)phenyl]pyrazin-2-amine]"
11,5.86,"Cc1ccc(-c2cnc(N)cn2)c(F)c1Oc1nccc(N)n1 [Example 315, 2-[3-(5-Aminopyrazin-2-yl)-2-fluoro-6 methylphenoxy]pyrimidin-4-amine]"
12,6.54,"CCc1ccc(-c2cnc(N)cn2)c(F)c1Oc1ncccn1 [Example 316, 5-[4-Ethyl-2-fluoro-3-(pyrimidin-2-yloxy)phenyl]pyrazin-2-amine]"
13,6.24,"CC(C)CCc1ccc(-c2cnc(N)cn2)c(F)c1Oc1ncccn1 [Example 322, 5-(2-Fluoro-4-isopentyl-3-(pyrimidin-2 yloxy)phenyl)pyrazin-2-amine]"
14,6.45,"Nc1cnc(-c2ccc(CC3CCCCC3)c(Oc3nccc(N)n3)c2F)cn1 [Example 326, 2-(3-(5-Aminopyrazin-2-yl)-6-(cyclohexylmethyl)-2-fluorophenoxy)pyrimidin-4-amine]"
15,6.28,"CC(C)CCc1ccc(-c2cnc(N)cn2)c(F)c1Oc1nccc(N)n1 [Example 327, 2-(3-(5-Aminopyrazin-2-yl)-2-fluoro-6-isopentylphenoxy)pyrimidin-4-amine]"

row,Molecule,pKi
1,"CC(C)(C)c1ccc(-c2cnc(N)cn2)cc1OCc1ccccc1 [Example 215, 5-[3-(Benzyloxy)-4-tert-butylphenyl]pyrazin-2-amine]",6.21
2,"Cn1ccnc1COc1c(C2CCC2)ccc(-c2cnc(N)cn2)c1F [Example 280, 5-{4-Cyclobutyl-2-fluoro-3-[(1-methyl-1H-imidazol-2-yl)methoxy]phenyl}pyrazin-2-amine trifluoroacetic acid salt]",< 5.00

# System: leukotriene pathway in human whole blood (LTB4 levels)
# Experiment: Human whole blood assay (LTB4)
# Type: cell-based
# Conditions: human whole blood diluted 1:1 in RPMI, stimulated with calcium ionophore A23187; single replicate
# Procedure: as §1
# An in vitro cellular assay was performed using human whole blood collected in heparin-containing tubes, which was used to test the ability of compounds to modulate the leukotriene pathway in human whole blood. The blood was diluted 1:1 in RPMI medium, pre-incubated for 15 min at 37° Celsius with test compounds at various concentrations, and then stimulated with calcium ionophore, A23187 (7 μg/mL), for 30 min at 37° Celsius. The samples were then centrifuged and plasma was removed. The plasma was diluted in assay buffer and LTB4 levels were measured using a commercial kit (Enzo Life Sciences). The concentration of each compound that was required for half-maximal inhibition (modulation) of recombinant enzyme activity (IC50) was calculated by a 4-parameter equation using the program GraphPad Prism (GraphPad software).
row,pIC50,Molecule
1,6.11,"2-[3-(Benzyloxy)-4-cyclobutyl-2- fluorophenyl]-5H-pyrrolo[2,3-b]pyrazine [Example 177]"
2,6.19,"Nc1cnc(-c2ccc(C3CCC3)c(OCC(O)CNc3ncccn3)c2F)cn1 (racemic) [Example 56, racemic 1-(3-(5-Aminopyrazin-2-yl)-6-cyclobutyl-2-fluorophenoxy)-3-(pyrimidin-2-ylamino)propan-2-ol]"
3,6.14,"Nc1cnc(-c2ccc(C3CCC3)c(OCC(O)Cn3cccn3)c2F)cn1 (racemic) [Example 60, racemic 1-(3-(5-Aminopyrazin-2-yl)-6-cyclobutyl-2-fluorophenoxy)-3-(1H-pyrazol-1-yl)propan-2-ol]"
4,6.97,"N#Cc1cnn(CC(O)COc2c(C3CCC3)ccc(-c3cnc(N)cn3)c2F)c1N (racemic) [Example 65, racemic 5-Amino-1-(3-(3-(5-aminopyrazin-2-yl)-6-cyclobutyl-2-fluorophenoxy)-2-hydroxypropyl)-1H-pyrazole-4-carbonitrile]"
5,6.14,"Nc1cnc(-c2ccc(C3CCC3)c(OCC(O)CNc3ccn[nH]3)c2F)cn1 (racemic) [Example 67, racemic 1-((1H-Pyrazol-5-yl)amino)-3-(3-(5-aminopyrazin-2-yl)-6-cyclobutyl-2-fluorophenoxy)propan-2-ol]"
6,5.91,"CS(=O)(=O)c1cccc(COc2c(C3CCC3)ccc(-c3cnc(N)cn3)c2F)c1 [Example 6, 5-(4-Cyclobutyl-2-fluoro-3-{[3-(methylsulfonyl)benzyl]oxy}phenyl)-pyrazin-2-amine]"
7,5.85,"Nc1cnc(-c2ccc(C3CCC3)c(OCc3ccc(F)c(F)c3)c2F)cn1 [Example 33, 5-{4-Cyclobutyl-3-[(3,4-difluorobenzyl)oxy]-2-fluorophenyl}pyrazin-2-amine]"
